Literature values in patent US8961477B2, “Delivery of immune response modifier compounds” (3M Innovative Properties Company, priority 2003, dated 2015).

Legend:
[1] = target: T1, TLR 7 (Homo sapiens, UniProt Q9NYK1); settings: statement in words, no data given
T1 construct: expressed in transfected cells
T1 sequence (Q9NYK1 27-1049): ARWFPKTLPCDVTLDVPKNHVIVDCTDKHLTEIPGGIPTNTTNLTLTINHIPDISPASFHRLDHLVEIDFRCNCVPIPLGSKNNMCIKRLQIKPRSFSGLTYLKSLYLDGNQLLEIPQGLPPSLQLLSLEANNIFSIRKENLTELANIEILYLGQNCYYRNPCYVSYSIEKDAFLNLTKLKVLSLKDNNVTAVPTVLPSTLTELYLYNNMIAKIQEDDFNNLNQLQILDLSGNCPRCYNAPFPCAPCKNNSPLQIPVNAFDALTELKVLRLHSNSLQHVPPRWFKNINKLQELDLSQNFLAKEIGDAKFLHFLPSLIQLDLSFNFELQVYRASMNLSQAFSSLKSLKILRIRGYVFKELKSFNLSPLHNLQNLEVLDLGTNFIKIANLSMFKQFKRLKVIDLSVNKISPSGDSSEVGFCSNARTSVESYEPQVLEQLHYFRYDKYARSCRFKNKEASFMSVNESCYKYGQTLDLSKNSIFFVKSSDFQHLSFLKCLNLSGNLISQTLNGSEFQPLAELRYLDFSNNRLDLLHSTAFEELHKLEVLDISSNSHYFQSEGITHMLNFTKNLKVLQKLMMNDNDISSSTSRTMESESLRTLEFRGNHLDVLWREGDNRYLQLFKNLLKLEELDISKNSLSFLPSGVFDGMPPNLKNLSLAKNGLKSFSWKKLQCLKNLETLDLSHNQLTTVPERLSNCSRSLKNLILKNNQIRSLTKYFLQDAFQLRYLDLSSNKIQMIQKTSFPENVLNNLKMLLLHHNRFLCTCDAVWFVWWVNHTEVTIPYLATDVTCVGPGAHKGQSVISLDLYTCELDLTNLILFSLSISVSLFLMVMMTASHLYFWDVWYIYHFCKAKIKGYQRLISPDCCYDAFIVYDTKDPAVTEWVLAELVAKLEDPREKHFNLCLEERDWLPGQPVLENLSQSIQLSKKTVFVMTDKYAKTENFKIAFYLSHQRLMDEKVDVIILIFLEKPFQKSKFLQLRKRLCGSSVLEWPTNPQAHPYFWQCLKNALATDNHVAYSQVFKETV

[2] = target: T2, TLR 8 (Homo sapiens, UniProt Q9NR97); settings: statement in words, no data given
T2 construct: expressed in transfected cells
T2 sequence (Q9NR97 27-1041): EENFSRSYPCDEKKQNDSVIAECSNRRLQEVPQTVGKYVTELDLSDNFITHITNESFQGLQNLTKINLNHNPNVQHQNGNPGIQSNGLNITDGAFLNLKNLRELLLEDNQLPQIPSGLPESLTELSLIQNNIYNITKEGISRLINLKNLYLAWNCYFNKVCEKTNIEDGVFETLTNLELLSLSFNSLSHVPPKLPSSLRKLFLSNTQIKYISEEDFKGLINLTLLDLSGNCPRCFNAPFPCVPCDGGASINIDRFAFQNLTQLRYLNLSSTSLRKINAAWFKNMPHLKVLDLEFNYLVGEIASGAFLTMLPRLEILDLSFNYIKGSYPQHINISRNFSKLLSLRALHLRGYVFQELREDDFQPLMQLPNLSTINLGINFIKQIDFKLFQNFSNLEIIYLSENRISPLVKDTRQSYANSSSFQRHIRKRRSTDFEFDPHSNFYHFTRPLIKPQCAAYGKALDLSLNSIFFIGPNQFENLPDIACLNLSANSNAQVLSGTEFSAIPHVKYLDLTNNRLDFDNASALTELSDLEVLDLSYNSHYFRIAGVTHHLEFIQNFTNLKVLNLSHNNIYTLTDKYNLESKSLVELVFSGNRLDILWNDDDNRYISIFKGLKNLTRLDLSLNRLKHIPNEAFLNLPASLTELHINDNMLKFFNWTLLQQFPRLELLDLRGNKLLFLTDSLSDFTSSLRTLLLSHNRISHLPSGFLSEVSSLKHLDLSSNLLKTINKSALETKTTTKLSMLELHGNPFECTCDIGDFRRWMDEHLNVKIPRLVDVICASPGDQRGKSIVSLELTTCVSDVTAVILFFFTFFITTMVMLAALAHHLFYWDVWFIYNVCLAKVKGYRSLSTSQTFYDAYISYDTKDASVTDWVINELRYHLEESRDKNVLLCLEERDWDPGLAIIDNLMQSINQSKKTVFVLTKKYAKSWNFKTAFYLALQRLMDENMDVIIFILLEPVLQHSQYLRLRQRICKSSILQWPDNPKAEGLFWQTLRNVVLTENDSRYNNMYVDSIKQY

[3] = delivered systemically
[4] = target: T3, TLR 6 (Homo sapiens, UniProt Q9Y2C9); settings: statement in words, no data given
T3 construct: expressed in transfected cells
T3 sequence (Q9Y2C9 32-796): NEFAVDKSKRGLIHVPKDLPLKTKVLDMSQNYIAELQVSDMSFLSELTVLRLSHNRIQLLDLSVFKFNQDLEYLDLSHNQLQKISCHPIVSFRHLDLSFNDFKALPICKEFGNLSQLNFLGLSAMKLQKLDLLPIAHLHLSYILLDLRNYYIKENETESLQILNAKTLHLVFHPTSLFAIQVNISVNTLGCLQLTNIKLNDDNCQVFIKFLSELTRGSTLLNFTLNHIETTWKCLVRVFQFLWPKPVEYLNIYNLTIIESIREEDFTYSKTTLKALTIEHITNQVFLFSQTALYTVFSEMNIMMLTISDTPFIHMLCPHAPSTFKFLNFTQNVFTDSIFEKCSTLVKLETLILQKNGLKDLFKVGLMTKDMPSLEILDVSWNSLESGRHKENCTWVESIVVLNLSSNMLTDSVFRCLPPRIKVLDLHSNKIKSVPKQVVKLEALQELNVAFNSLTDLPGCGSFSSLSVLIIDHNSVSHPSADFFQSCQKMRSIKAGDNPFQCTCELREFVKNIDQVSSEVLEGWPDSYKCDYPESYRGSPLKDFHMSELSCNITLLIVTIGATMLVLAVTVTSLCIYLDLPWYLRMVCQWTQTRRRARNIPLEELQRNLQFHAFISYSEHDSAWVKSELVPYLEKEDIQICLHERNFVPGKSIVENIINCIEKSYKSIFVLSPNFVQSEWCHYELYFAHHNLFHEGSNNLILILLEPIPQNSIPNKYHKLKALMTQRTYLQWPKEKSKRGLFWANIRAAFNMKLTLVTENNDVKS

SMILES	TLR 7 agonist activity [1]	TLR 8 agonist activity [2]	CNS effect compared to imiquimod [3]	TLR 6 activity [4]
CCOCc1nc2c(N)nc3c(c2n1CC(C)(C)O)CCCC3 [4-amino-2-(ethoxymethyl)-α,α-dimethyl-6,7,8,9-tetrahydro-1H-imidazo[4,5-c]quinoline-1-ethanol]	TLR 7 and TLR 8 agonist	TLR 7 and TLR 8 agonist	–	–
CC(C)(O)Cn1cnc2c(N)nc3ccccc3c21 [4-amino-α,α-dimethyl-1H-imidazo[4,5-c]quinoline-1-ethanol]	predominantly a TLR 7 agonist	not a substantial TLR 8 agonist	much lower CNS effect	TLR 6 activity
